This passage reports TGI and GI50 results from PubChem BioAssay (NCI).

Among the test systems are MALME-3M melanoma; RXF 393 renal; SF-539 CNS; NCI/ADR-RES ovarian; HS 578T breast; SF-295 CNS; UACC-62 melanoma; IGROV1 ovarian; LOX IMVI melanoma; U251 CNS.
Holding throughout (test): NCI-60 cell line screen, 48 h

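Five concentrations, 48 hours, 96-well plates. The concentration for 50% growth inhibition is given as GI50. TGI is the concentration that stops growth completely.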 Some results are limits rather than exact numbers.

`CNC(=O)CC1NC(=O)c2csc(n2)-c2ccc(-c3nc(C4=NC(C(=O)N5CCCC5C(N)=O)CO4)cs3)nc2-c2csc(n2)-c2csc(n2)C(C(C)C)NC(=O)CNC(=O)c2csc(n2)C(C(C)C)NC(=O)c2nc1sc2C` (stereo unspecified): the TGI in the assay on MALME-3M melanoma, in the assay with RXF 393 renal, in the assay on NCI/ADR-RES ovarian, in the assay on SF-295 CNS, in the assay on UACC-62 melanoma and with LOX IMVI melanoma was above 25000 nM each time. This molecule returned a TGI in the assay on U251 CNS above 25000 nM. For the same molecule, the GI50 in the assay on RXF 393 renal is above 25000 nM; in the assay on SF-539 CNS, above 25000 nM; in the assay with NCI/ADR-RES ovarian, above 25000 nM; in the assay with HS 578T breast it was below 1 nM; with SF-295 CNS it was above 25000 nM; in the assay with UACC-62 melanoma, above 25000 nM. Also, the GI50 in the assay on IGROV1 ovarian, in the assay on LOX IMVI melanoma and in the assay on U251 CNS was above 25000 nM throughout.

Regarding `CCC[CH2][Sn]([CH2]CCC)([CH2]CCC)[O]C(=O)c1ccc(Cl)cc1Cl`, the GI50 with MALME-3M melanoma was 111 nM; in the assay on RXF 393 renal, 151 nM; in the assay on SF-539 CNS, 172 nM; in the assay on NCI/ADR-RES ovarian it was 177 nM; in the assay on HS 578T breast, 173 nM; with SF-295 CNS, 197 nM. Moreover, the GI50 in the assay with UACC-62 melanoma was 161 nM; in the assay with IGROV1 ovarian, 150 nM; in the assay with LOX IMVI melanoma, 148 nM; with U251 CNS it was 170 nM. In addition, the TGI in the assay on MALME-3M melanoma is 258 nM; with RXF 393 renal, 321 nM; in the assay on SF-539 CNS it was 327 nM; in the assay on NCI/ADR-RES ovarian it was 378 nM; in the assay on HS 578T breast, 538 nM; in the assay on SF-295 CNS, 375 nM. Further, the TGI came out at 368 nM with UACC-62 melanoma, 308 nM in the assay on IGROV1 ovarian, 303 nM with LOX IMVI melanoma and 330 nM with U251 CNS.

On to `CN(C)CC1C(=O)O[C@H]2[C@H]1CC/C(COC(=O)c1cc3ccccc3[nH]1)=C\CC[C@@]1(C)O[C@@H]21` (stereo partly specified), for which the GI50 with MALME-3M melanoma is 1800 nM; in the assay on RXF 393 renal it was 1400 nM; with SF-539 CNS it was 2200 nM; in the assay on NCI/ADR-RES ovarian it was 1760 nM; in the assay with HS 578T breast, 2930 nM; with SF-295 CNS, 4870 nM. The GI50 with UACC-62 melanoma was 1720 nM; in the assay with IGROV1 ovarian, 1970 nM; with LOX IMVI melanoma it was 500 nM; with U251 CNS, 2300 nM. The TGI in the assay with MALME-3M melanoma is 4560 nM; with RXF 393 renal, 2890 nM; in the assay with SF-539 CNS, 5860 nM; with NCI/ADR-RES ovarian, 4600 nM; with HS 578T breast, 13600 nM; with SF-295 CNS, 18500 nM. Further, the TGI came to 3890 nM in the assay with UACC-62 melanoma, 4620 nM in the assay with IGROV1 ovarian, 992 nM in the assay on LOX IMVI melanoma and 5710 nM in the assay on U251 CNS.

Take `COc1cc(/C=C/C(=O)c2c(C)nc3ccccc3c2/C=C/c2ccc(C)cc2)cc(OC)c1OC`: the GI50 is 1850 nM in the assay on MALME-3M melanoma; 1630 nM with RXF 393 renal; 1920 nM with SF-539 CNS; 2480 nM in the assay on NCI/ADR-RES ovarian; 3260 nM with HS 578T breast; 2190 nM in the assay with SF-295 CNS. The GI50 with UACC-62 melanoma is 1600 nM; with IGROV1 ovarian, 1720 nM; in the assay with LOX IMVI melanoma, 1450 nM; with U251 CNS it was 1730 nM. The TGI with MALME-3M melanoma is 3520 nM; with RXF 393 renal it was 3130 nM; in the assay with SF-539 CNS it was 3690 nM; in the assay on NCI/ADR-RES ovarian, 7780 nM; in the assay on HS 578T breast it was above 100000 nM; with SF-295 CNS, 5400 nM. The TGI with UACC-62 melanoma stood at 3080 nM; in the assay on IGROV1 ovarian, 3720 nM; in the assay on LOX IMVI melanoma, 2760 nM; with U251 CNS, 3570 nM.

For the molecule `O=C(O)C1C(C(=O)O)C23CC2(C(=O)O)C2(C(=O)O)CCC3=C3CCCC312` (stereo unspecified), the TGI with MALME-3M melanoma is 15200 nM; in the assay on RXF 393 renal, 37700 nM; with SF-539 CNS, 34800 nM; in the assay with NCI/ADR-RES ovarian, above 100000 nM; in the assay with HS 578T breast, 7800 nM; with SF-295 CNS, 20800 nM. The TGI is 23500 nM in the assay on UACC-62 melanoma, 51600 nM with IGROV1 ovarian, 28100 nM in the assay on LOX IMVI melanoma and 23800 nM with U251 CNS.

On to `CN(C)CCCN1c2ccccc2C(C)(C)c2ccccc21`, for which the TGI in the assay on MALME-3M melanoma stood at 31000 nM; with RXF 393 renal it was 26800 nM; in the assay on SF-539 CNS, 28400 nM; with NCI/ADR-RES ovarian it was 31800 nM; with HS 578T breast, 43300 nM; in the assay with SF-295 CNS, 32900 nM. For the same molecule, the TGI came out at 25800 nM with UACC-62 melanoma, 31700 nM in the assay on IGROV1 ovarian, 28400 nM in the assay with LOX IMVI melanoma and 24900 nM in the assay on U251 CNS.

For `COc1cc2c(cc1OCCCCCOc1ccc(-n3c(C)nc4ccccc4c3=O)cc1)N=C[C@@H]1CCCN1C2=O`, the GI50 was 236 nM in the assay with MALME-3M melanoma; 210 nM in the assay with RXF 393 renal; 285 nM in the assay on SF-539 CNS; 1960 nM in the assay on NCI/ADR-RES ovarian; 232 nM in the assay on HS 578T breast; 391 nM with SF-295 CNS. Also, the GI50 in the assay with UACC-62 melanoma is 171 nM; with IGROV1 ovarian, 182 nM; with LOX IMVI melanoma it was 176 nM; in the assay with U251 CNS, 231 nM. For the same molecule, the TGI in the assay with MALME-3M melanoma was determined as 585 nM; with RXF 393 renal, 390 nM; in the assay with SF-539 CNS, 728 nM; with NCI/ADR-RES ovarian, 6310 nM; in the assay on HS 578T breast it was 880 nM; with SF-295 CNS it was 1830 nM. For the same molecule, the TGI was 336 nM in the assay on UACC-62 melanoma, 640 nM with IGROV1 ovarian, 447 nM with LOX IMVI melanoma and 759 nM with U251 CNS.

In the case of `CNCCNc1c2c(c(NCCNC)c3[nH]ccc13)C(=O)c1ccccc1C2=O`, the GI50 with MALME-3M melanoma was 258 nM; in the assay on RXF 393 renal it was 214 nM; in the assay on SF-539 CNS it was 458 nM; in the assay with NCI/ADR-RES ovarian, 1260 nM; with HS 578T breast it was 565 nM; in the assay on SF-295 CNS, 139 nM. Further, the GI50 in the assay with UACC-62 melanoma is 231 nM; in the assay with IGROV1 ovarian, 111 nM; in the assay with LOX IMVI melanoma, below 23.1 nM; with U251 CNS, 58.7 nM. Also, the TGI in the assay on MALME-3M melanoma amounted to 1320 nM; in the assay on RXF 393 renal it was 752 nM; with SF-539 CNS, 1070 nM; in the assay on NCI/ADR-RES ovarian, 8210 nM; with HS 578T breast, 1650 nM; in the assay with SF-295 CNS it was 901 nM. Also, the TGI came out at 1050 nM in the assay on UACC-62 melanoma, 686 nM in the assay on IGROV1 ovarian, 71.7 nM in the assay on LOX IMVI melanoma and 615 nM with U251 CNS.
